Read-outs that look alike come from different tables or passages of the source.
Assays:
[1] = system: P. berghei-ANKA-GFP-LucCON liver stage parasites in HepG2-A16-CD81EGFP cells; assay: P. berghei liver stage Pb-Luc assay, Method 1 (UCSD, 1536-well); type: cell-based, Plasmodium berghei; settings: for activity at 1 µM / activity at 3 µM / AC50: Plasmodium berghei; for activity at 1 µM / activity at 3 µM: 48 h, average of 2 wells on a 1536 well plate; for activity at 1 µM: 1 uM (compounds provided at 10 mM); for activity at 3 µM: 3 uM (compounds provided at 10 mM); for AC50 / Max Resp (signal direction of the dose response): Method 1; for Max Resp (signal direction of the dose response): Decrease = decreasing P. berghei viability with dose, Increase = increasing signal, Inactive = no dose response
[2] = system: Plasmodium falciparum Dd2 asexual blood stage parasites; assay: microbe, parasite or virus in culture; design: species or system Plasmodium falciparum Dd2 in human erythrocytes; single determination (one 11-point concentration-response curve); settings: Plasmodium falciparum, DD2, Erythrocyte, 72 h; read-out: AC50
in vitro = settings: human
[3] = column 11, read-out: Pb-Luc (P. berghei liver stage), % of control, lower concentration, first repeat
[4] = column 12, read-out: Pb-Luc (P. berghei liver stage), % of control, lower concentration, second repeat
[5] = column 8, read-out: Pb-Luc (P. berghei liver stage), % of control, higher concentration, first repeat
[6] = column 9, read-out: Pb-Luc (P. berghei liver stage), % of control, higher concentration, second repeat
[7] = HepG2-A16-CD81EGFP cells, uninfected
[8] = Hill fit, 50% of maximum activity response, read-out: AC50
[9] = log10 of molar AC50 from Hill fit, read-out: Log AC50 (converted)

COc1ccc(S(=O)(=O)N2CCC3(CC2)OCCN3S(=O)(=O)c2c(C)cc(C)cc2C)cc1 [MLS001237293-01]
activity at 1 µM [1, 3]: 88%
activity at 1 µM [1, 4]: 81%
activity at 3 µM [1, 5]: 87%
activity at 3 µM [1, 6]: 75%
AC50 [2]: 2660 nM
viability at 48 h, 1 µM (in vitro; [7]): 108%
viability at 48 h, 3 µM (in vitro; [7]): 103%

Oc1cc(Cc2ccccc2)cnc1CN1CCCCC1 [MLS000104838-01]
activity at 1 µM [1, 3]: 128%
activity at 1 µM [1, 4]: 110%
activity at 3 µM [1, 5]: 97%
activity at 3 µM [1, 6]: 103%
AC50 [2]: 944 nM
viability at 48 h, 1 µM (in vitro; [7]): 98%
viability at 48 h, 3 µM (in vitro; [7]): 105%

CCCCCNc1nc2sc3c(c2c(=O)n1-c1cccc(Cl)c1)CCN(C)C3 [MLS000762913-01]
activity at 1 µM [1, 3]: 99%
activity at 1 µM [1, 4]: 101%
activity at 3 µM [1, 5]: 72%
activity at 3 µM [1, 6]: 91%
AC50 [2]: 7500 nM
viability at 48 h, 1 µM (in vitro; [7]): 92%
viability at 48 h, 3 µM (in vitro; [7]): 105%

Cc1ccc(NC(=O)c2cc(C(=O)c3cc(Cl)ccc3O)cn(-c3ccc(C)cc3)c2=O)cc1 [MLS000374606-01]
activity at 1 µM [1, 3]: 98%
activity at 1 µM [1, 4]: 87%
activity at 3 µM [1, 5]: 59%
activity at 3 µM [1, 6]: 61%
AC50 [2]: 422 nM
viability at 48 h, 1 µM (in vitro; [7]): 106%
viability at 48 h, 3 µM (in vitro; [7]): 93%

CCCSc1ccc([C@H]2N[C@@](Cc3ccccc3)(C(=O)OC)[C@H]3C(=O)N(CC)C(=O)[C@@H]23)cc1 [MLS001362807-01]
activity at 1 µM [1, 3]: 115%
activity at 1 µM [1, 4]: 102%
activity at 3 µM [1, 5]: 124%
activity at 3 µM [1, 6]: 103%
AC50 [2]: 5310 nM
viability at 48 h, 1 µM (in vitro; [7]): 109%
viability at 48 h, 3 µM (in vitro; [7]): 103%

COc1cc(C#Cc2c(-c3cncn3C)n(C)c3ccc(-c4ccc5[nH]ccc5c4)cc23)cc(OC)c1 [MLS002391601-01]
activity at 1 µM [1, 3]: 112%
activity at 1 µM [1, 4]: 94%
activity at 3 µM [1, 5]: 111%
activity at 3 µM [1, 6]: 101%
AC50 [2]: 2370 nM
viability at 48 h, 1 µM (in vitro; [7]): 105%
viability at 48 h, 3 µM (in vitro; [7]): 102%

CC1CCCCN1S(=O)(=O)c1ccc(C(=O)Nc2ccccc2-c2nc3ccccc3[nH]2)cc1 (stereo not drawn) [MLS000697052-01]
AC50 [1, 8]: 355 nM
AC50 [1, 9]: 355 nM
AC50 [2]: 7500 nM
viability at 66 h (in vitro; [7]): 104%

CC1CCCN(Cc2c(O)ccc3c(=O)c(-c4ccc(Cl)cc4)coc23)C1 (stereo not drawn) [MLS001196099-01]
activity at 1 µM [1, 3]: 102%
activity at 1 µM [1, 4]: 123%
activity at 3 µM [1, 5]: 105%
activity at 3 µM [1, 6]: 96%
AC50 [2]: 1880 nM
viability at 48 h, 1 µM (in vitro; [7]): 113%
viability at 48 h, 3 µM (in vitro; [7]): 99%

CCOc1ccc(NC(=O)CN2C(=O)NC(C)(c3ccc(OC(F)F)cc3)C2=O)cc1 (stereo not drawn) [MLS001193353-01]
activity at 1 µM [1, 3]: 120%
activity at 1 µM [1, 4]: 108%
activity at 3 µM [1, 5]: 48%
activity at 3 µM [1, 6]: 87%
AC50 [2]: 9440 nM
viability at 48 h, 1 µM (in vitro; [7]): 109%
viability at 48 h, 3 µM (in vitro; [7]): 103%

COc1cccc(NC(=O)CN(C)C(=O)c2ccc(-c3ccc(Cl)cc3)o2)c1 [MLS001142098-01]
activity at 1 µM [1, 3]: 146%
activity at 1 µM [1, 4]: 155%
activity at 3 µM [1, 5]: 150%
activity at 3 µM [1, 6]: 187%
AC50 [2]: 4220 nM
viability at 48 h, 1 µM (in vitro; [7]): 100%
viability at 48 h, 3 µM (in vitro; [7]): 100%

COc1ccc(NC(=O)CN(C)C(=O)c2oc3c(ccc4ccccc43)c2C)cc1 [MLS002182882-01]
activity at 1 µM [1, 3]: 160%
activity at 1 µM [1, 4]: 170%
activity at 3 µM [1, 5]: 88%
activity at 3 µM [1, 6]: 114%
AC50 [2]: 531 nM
viability at 48 h, 1 µM (in vitro; [7]): 110%
viability at 48 h, 3 µM (in vitro; [7]): 104%

COc1ccc(C)cc1N(C(=O)COc1cccc(F)c1)c1nc2ccccc2s1 [MLS000394477-01]
activity at 1 µM [1, 3]: 105%
activity at 1 µM [1, 4]: 106%
activity at 3 µM [1, 5]: 107%
activity at 3 µM [1, 6]: 110%
AC50 [2]: 5960 nM
viability at 48 h, 1 µM (in vitro; [7]): 91%
viability at 48 h, 3 µM (in vitro; [7]): 106%

CC(C)(C)N1C(=O)c2ccc(C(=O)Nc3ccc(-c4nc5ccccc5[nH]4)cc3)cc2C1=O [MLS000567491-01]
activity at 1 µM [1, 3]: 114%
activity at 1 µM [1, 4]: 117%
activity at 3 µM [1, 5]: 141%
activity at 3 µM [1, 6]: 128%
AC50 [2]: 6680 nM
viability at 48 h, 1 µM (in vitro; [7]): 94%
viability at 48 h, 3 µM (in vitro; [7]): 108%

COc1cc(Cl)c(C)cc1NC(C)C(=O)Nc1cc(C(F)(F)F)ccc1N1CCOCC1 (stereo not drawn) [MLS000375301-01]
activity at 1 µM [1, 3]: 124%
activity at 1 µM [1, 4]: 129%
activity at 3 µM [1, 5]: 103%
activity at 3 µM [1, 6]: 103%
AC50 [2]: 422 nM
viability at 48 h, 1 µM (in vitro; [7]): 109%
viability at 48 h, 3 µM (in vitro; [7]): 94%

CCn1cc(C(=O)N[C@@H](CCSC)C(=O)NC(C)(C)CO)c(=O)c2cc3c(cc21)OCO3 [MLS001201727-01]
Max Resp (signal direction of the dose response) [1]: Inactive
AC50 [2]: 2990 nM
viability at 48 h (in vitro; [7]): 103%
viability at 48 h, 1 µM (in vitro; [7]): 103%

CC1=C(CC(=O)c2ccc(Cl)cc2)C(=O)c2ccccc2C1=O [MLS000543314-01]
activity at 1 µM [1, 3]: 78%
activity at 1 µM [1, 4]: 79%
activity at 3 µM [1, 5]: 77%
activity at 3 µM [1, 6]: 70%
AC50 [2]: 211 nM
viability at 48 h, 1 µM (in vitro; [7]): 105%
viability at 48 h, 3 µM (in vitro; [7]): 100%

COc1cc(O)c(C(CCN2CCN(c3ccccc3)CC2)c2ccc3c(c2)OCO3)c(OC)c1 (stereo not drawn) [MLS000879526-01]
activity at 1 µM [1, 3]: 105%
activity at 1 µM [1, 4]: 112%
activity at 3 µM [1, 5]: 97%
activity at 3 µM [1, 6]: 92%
AC50 [2]: 841 nM
viability at 48 h, 1 µM (in vitro; [7]): 117%
viability at 48 h, 3 µM (in vitro; [7]): 96%

CCN1CCN(Cc2ccc(NC(=O)c3cc(NC(=O)c4cnn(-c5ccccc5)c4N)cc(OC)c3)cc2C(F)(F)F)CC1 [MLS000911569-01]
activity at 1 µM [1, 3]: 116%
activity at 1 µM [1, 4]: 92%
activity at 3 µM [1, 5]: 116%
activity at 3 µM [1, 6]: 103%
AC50 [2]: 2110 nM
viability at 48 h, 1 µM (in vitro; [7]): 98%
viability at 48 h, 3 µM (in vitro; [7]): 106%

CCOc1ccc(NC(=O)c2cc3ccccc3cc2O)cc1 [MLS000736677-01]
Max Resp (signal direction of the dose response) [1]: Decrease
AC50 [1, 8]: 501 nM
AC50 [1, 9]: 501 nM
AC50 [2]: 5310 nM
viability at 48 h (in vitro): 100%
viability at 48 h, 1 µM (in vitro): 100%

C=C(C)COc1ccc(-c2ncnc(C(F)(F)F)c2-c2ccc(OC)cc2)c(O)c1 [MLS001216205-01]
activity at 1 µM [1, 3]: 120%
activity at 1 µM [1, 4]: 94%
activity at 3 µM [1, 5]: 111%
activity at 3 µM [1, 6]: 99%
AC50 [2]: 2990 nM
viability at 48 h, 1 µM (in vitro; [7]): 89%
viability at 48 h, 3 µM (in vitro; [7]): 104%

O=C(Nc1ccc(-c2csc(Nc3ccccc3)n2)cc1)c1cc([N+](=O)[O-])cc(C(F)(F)F)c1 [MLS000911606-01]
AC50 [1, 8]: 2820 nM
AC50 [1, 9]: 2820 nM
AC50 [2]: 2110 nM
viability at 66 h (in vitro; [7]): 104%

O=C(CN1CCN(C(=O)c2ccco2)CC1)Nc1cc(Cl)ccc1Cl [MLS000122513-01]
Max Resp (signal direction of the dose response) [1]: Inactive
AC50 [2]: 5960 nM
viability at 66 h (in vitro; [7]): 97.6%

CC(C)COc1ccc(C(=O)N/C(=C\c2cccc([N+](=O)[O-])c2)C(=O)OC(C)C)cc1 [MLS000574251-01]
activity at 1 µM [1, 3]: 90%
activity at 1 µM [1, 4]: 84%
activity at 3 µM [1, 5]: 65%
activity at 3 µM [1, 6]: 69%
AC50 [2]: 531 nM
viability at 48 h, 1 µM (in vitro; [7]): 111%
viability at 48 h, 3 µM (in vitro; [7]): 102%

Cc1ccc(/C=N/NC(=O)c2cc3ccccc3cc2O)o1 [MLS001219838-01]
Max Resp (signal direction of the dose response) [1]: Decrease
AC50 [1, 8]: 1410 nM
AC50 [1, 9]: 1410 nM
AC50 [2]: 5310 nM
viability at 48 h (in vitro; [7]): 97.9%
viability at 48 h, 1 µM (in vitro; [7]): 97.9%
